Source: patent EP0465913B1, “Diaminotrifluoromethylpyrimidine derivatives, process for their production and phospholipase A2 inhibitor containing them” (ISHIHARA SANGYO KAISHA, LTD., priority 1990, dated 1992)
Read-outs that look alike come from different tables or passages of the source.

Columns and labels:
[1] = tested on: carrageenin edema; test: Inhibitory activity on carrageenin edema; assay type: in vivo, Wistar male rats; details: rat, paw swelling volume three hours after carrageenin; for Inhibition rate (%): dose 50 mg/kg orally
Protocol: Using Wistar male rats (body weight: about 100 g), each test group consisted of 5 rats. A test compound was mixed with Tween 80 [polyoxyethylenesorbitan monooleate (manufactured by Nacalai Tesque K.K.)], and distilled water was added thereto to obtain a 2% Tween 80 suspension, or it was dissolved in the form of a salt in water to obtain an aqueous solution. Either the suspension or the aqueous solution was orally administered in an amount of 200 mg/kg, 100 mg/kg, 50 mg/kg or 25 mg/kg. One hour later, 0.1 ml of a 1% λ-carrageenin solution dissolved in a physiological saline was injected subcutaneously to the right hind paw of each rat to cause inflamation. Three hours later, the paw volume was measured by a paw volume measuring device (manufactured by Ugobasiee K.K.). A swelling volume was obtained from the difference from the value before the inflammation. Inhibition rate (%) = (l -(F)/(E)) x 100 [formula] • F: Average swelling volume in the group to which a test compound was administered. • E: Average swelling volume in the control group.

[2] = tested on: experimental acute pancreatitis model; test: Effects against acute pancreatitis (Test Example 8, closed duodenal loop method, lesion scores); assay type: in vivo, Crj-CD male rats; details: Rattus norvegicus, 10 mg/kg single intravenous injection, sodium salt, 6 hours after ventrotomy
Protocol: Using Crj-CD male rats, each test group consisted of 3 rats. An experimental acute pancreatitis model was prepared by a closed duodenal loop method under anethesia with halothane (manufactured by Hoechst Japan) and nitrous oxide (manufactured by Sumitomo Seika K.K.) applied by a general inhalation anesthesia machine (Model EM2 and halothane evaporator F-Model). Each compound (subjected to the test in the form of a sodium salt) was continuously intravenously injected into the tail vein in an amount of 0.4 ml/100 g to 0.6 ml/100 g at a rate of 0.05 ml per minute by a pump (Technicon AA II Proportioning Pump III, manufactured by Technicon Instruments Corporation) or rapidly intravenously injected. No injection was made to a control group. Gross pathological examination was conducted upon expiration of 6 hours after the ventrotomy in the case of the group to which the compound was administered. With respect to each of four lesions among pancreatic lesions i.e. petechia, ecchymosis, pancreatic necrosis and abdominal fatty necrosis, the grade and the distribution of lesions were scored with five grades of 0, 0.5, 1, 2 and 3 (severe lesions are 3). The sum of all lesions was designated as scores of pancreatitis lesions, and the sum of the score of petechia and the score of ecchymosis only was designated as scores of hemorrhagic lesions. The pancreatitis inhibition rate (%) and the hemorrhage inhibition rate (%) were obtained by the following formulas, and the results are shown in Table 13. Pancreatitis inhibition rate (%) = (l -(H)/(G)) x 100 [formula] • H: Scores of pancreatitis lesions of the group to which a test compound was administered. • G: Scores of pancreatitis lesions of the control group. Hemorrhage inhibition rate (%) = (l -(J)/(I)) x 100 [formula] • J: Scores of hemorrhagic lesions of the group to which a test compound was administered. • I: Scores of hemorrhagic lesions of the control group.

[3] = biological target: T1, Porcine pancreatic phospholipase A2 (Sus scrofa, UniProt P00592); test: Phospholipase A2 inhibitory activity, method B (L-α-dipalmitoylphosphatidylcholine substrate); assay type: biochemical; details: 37°C for 30 minutes; for inhibition at 1000 ppm: 1,000 ppm, read-out: % inhibition of PLA2 (1,000 ppm)
T1 construct: purchased Boehringer Mannheim·Yamanouchi K.K. 161454·122416
Protocol: To a solution prepared by dissolving 9.2 mg of L-α-dipalmitoylphosphatidylcholine (manufactured by Nichiyu Liposome K.K.) in 0.5 ml of chloroform, a solution prepared by dissolving 32 mg of sodium cholate (manufactured by Wako Pure Chemical Industries, Ltd.) in 0.5 ml of methanol, was added, followed by mixing. The solvent of the mixture was removed under a nitrogen stream, and then 2.5 ml of a 250 mM sodium chloride solution [prepared by dissolving sodium chloride in a 100 mM Tris-HCl buffer solution {tris(hydroxymethyl)aminomethane (manufactured by Nacalai Tesque K.K.) was adjusted to pH8.0 with hydrochloric acid}] was added thereto, and the mixture was dissolved under stirring to obtain a substrate.
Porcine pancreatic phospholipase A2 [(161454·122416) manufactured by Boehringer Mannheim·Yamanouchi K.K.] was used.
To a 96 well microtitration plate, 20 µl of a solution containing calcium chloride, bovine serum alubmin (manufactured by Sigma Chemical, Co.) and a Tris-HCl buffer solution (pH8.0) at concentrations of 25 mM, 4.5 mg/ml and 100 mM, respectively, 5 µl of a solution prepared by dissolving 10 mg of a test compound in 500 µl of diemthylsulfoxide, followed by an addition of 500 µl of a 200 mM Tris-HCl buffer solution, 5 µl of an enzyme solution (10 µg/ml) [prepared by dissolving the enzyme in a bovine serum alubmin solution (prepared by dissolving bovine serum alubmin in a 100 mM Tris-HCl buffer solution at a concentration of 1 mg/ml)] and 20 µl of the substrate, were added and reacted at 37°C for 30 minutes. After termination of the reaction, the released free fatty acid was quantitatively analyzed in accordance with the ACS-ACOD (acyl CoA synthetase-acyl CoA oxidase) method [a kit of NEFA C test wako (manufactured by Wako Pure Chemical Industries, Ltd.) was used]. The quantitative analysis was made by means of Microplate ELISA Reader (Model 2550EIA Reader, manufactured by Bio-Rad Laboratories) at a wavelength of 540 nm. Separately, such experiments as mentioned above, were carried out at various concentrations (1 µg/ml, 0.75 µg/ml, 0.5 µg/ml and 0.25 µg/ml) of phospholipase A2 without a test compound. Then, the concentration of the free fatty acid versus the concentration of phospholipase A2 was plotted.
From this standard curve, the apparent concentration of phospholipase A2 in the case with a test compound, was read. Then, the percent inhibition of the enzyme was calculated by the following formula. Percent inhibition (%) = (l -(A)/(B)) x 100 [formula] • A: Apparent enzyme concentration when a test compound is added. • B: True enzyme concentration when a test compound is added.

[4] = read-out: Inhibition rate of hemorrhagic lesions (%)
[5] = read-out: Inhibition rate of pancreatitis lesions (%)

T1 sequence (P00592 23-146): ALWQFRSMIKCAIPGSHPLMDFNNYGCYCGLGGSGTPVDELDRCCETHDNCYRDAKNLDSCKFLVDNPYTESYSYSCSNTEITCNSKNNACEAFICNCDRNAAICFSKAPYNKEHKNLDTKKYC

Row | inhibition at 1000 ppm [3] | Structure (SMILES) | inhibition in vivo at 10 mg/kg [2, 4] | inhibition in vivo at 10 mg/kg [2, 5] | further results
1 | 85% | CCS(=O)(=O)Nc1ncc(C(F)(F)F)cc1NC(=O)C1CC=CCC1 (centres unmarked) [compound 95] | – | – | –
2 | 88% | CCS(=O)(=O)Nc1ncc(C(F)(F)F)cc1NC(=O)C1CCCCCC1 [compound 97] | 35% | 35% | –
3 | 86% | CCS(=O)(=O)Nc1ncc(C(F)(F)F)cc1NC(=O)c1cccc(C(F)(F)F)c1 [compound 99] | – | – | –
4 | 83% | CCS(=O)(=O)Nc1ncc(C(F)(F)F)cc1NC(=O)c1ccc(C(F)(F)F)cc1 [compound 100] | – | – | –
5 | 86% | CC(C)S(=O)(=O)Nc1ncc(C(F)(F)F)cc1NC(=O)C1CCCCC1 [compound 103] | – | – | –
6 | 61% | CCCCS(=O)(=O)Nc1ncc(C(F)(F)F)cc1NC(=O)C(F)(F)Cl [compound 108] | – | – | –
7 | 67% | COc1ccc(S(=O)(=O)Nc2ncc(C(F)(F)F)cc2NC(=O)c2cccs2)cc1 [compound 109] | – | – | –
8 | 41% | CN(C)S(=O)(=O)Nc1ncc(C(F)(F)F)cc1NC(=O)C1CCCC1 [compound 111] | – | – | –
9 | 79% | CN(C)S(=O)(=O)Nc1ncc(C(F)(F)F)cc1NC(=O)C(F)(F)C(F)(F)F [compound 112] | – | – | –
10 | 52% | COS(=O)(=O)Nc1ncc(C(F)(F)F)cc1NC(=O)C1CCCCC1 [compound 115] | – | – | –
11 | 69% | COS(=O)(=O)Nc1ncc(C(F)(F)F)cc1NC(=O)c1ccc2c(c1)CCC2 [compound 116] | – | – | –
12 | 65% | CCOS(=O)(=O)Nc1ncc(C(F)(F)F)cc1NC(=O)C1CCCCC1 [compound 117] | 30% | 30% | –
13 | 84% | CCOS(=O)(=O)Nc1ncc(C(F)(F)F)cc1NC(=O)c1ccc2c(c1)CCC2 [compound 118] | – | – | –
14 | 56% | Cc1cc(C)cc(C(=O)Nc2cc(C(F)(F)F)cnc2NS(C)(=O)=O)c1 [compound 122] | 51% | 51% | –
15 | 78% | CCCCCCC(=O)Nc1cc(C(F)(F)F)cnc1NS(C)(=O)=O [compound 124] | 51% | 51% | –
16 | 84% | O=C(Nc1cc(C(F)(F)F)cnc1NS(=O)(=O)c1cccs1)C1CCCCC1 [compound 126] | – | – | –
17 | 89% | O=C(Nc1cc(C(F)(F)F)cnc1NS(=O)(=O)c1cccs1)c1ccc2c(c1)CCC2 [compound 127] | – | – | –

Second part, the molecule before the results:

Row | Structure (SMILES) | inhibition at 1000 ppm [3] | inhibition in vivo at 10 mg/kg [2, 4] | inhibition in vivo at 10 mg/kg [2, 5] | further results
18 | CCOC(=O)NC(=S)Nc1cc(C(F)(F)F)cnc1NS(=O)(=O)c1ccc(C)cc1 [Compound No. 25] | – | – | – | inhibition in vivo at 200 mg/kg ([1]; po, 3 h, dose 200 mg/kg orally, read-out: Inhibition rate (%)): 27%
19 | CS(=O)(=O)Nc1ncc(C(F)(F)F)cc1NC(=O)c1ccc2c(c1)OCC(F)(F)O2 [Compound No. 35] | – | 35% | 35% | –
20 | CS(=O)(=O)Nc1ncc(C(F)(F)F)cc1NC(=O)c1ccc2c(c1)OCCO2 [compound 34] | – | 30% | 30% | –
21 | CS(=O)(=O)Nc1ncc(C(F)(F)F)cc1NC(=O)CC1CCCC1 [compound 62] | 53% | 45% | 61% | –
22 | CS(=O)(=O)Nc1ncc(C(F)(F)F)cc1NC(=O)CCc1ccccc1 [compound 64] | 61% | 60% | 68% | –
23 | CS(=O)(=O)Nc1ncc(C(F)(F)F)cc1NC(=O)C1CCCCCC1 [compound 67] | 82% | – | – | inhibition in vivo at 25 mg/kg ([1]; po, 3 h, dose 25 mg/kg orally, read-out: Inhibition rate (%)): 19%
24 | CS(=O)(=O)Nc1ncc(C(F)(F)F)cc1NC(=O)C1=CCCCC1 [compound 69] | 63% | – | – | Inhibition rate (%) [1]: 25%
25 | CC(C)=CC(=O)Nc1cc(C(F)(F)F)cnc1NS(C)(=O)=O [compound 70] | 40% | – | – | –
26 | CS(=O)(=O)Nc1ncc(C(F)(F)F)cc1NC(=O)C=Cc1ccccc1 [compound 71] | 77% | – | – | –
27 | C=CCCC(=O)Nc1cc(C(F)(F)F)cnc1NS(C)(=O)=O [compound 74] | 33% | 66% | 67% | –
28 | CS(=O)(=O)Nc1ncc(C(F)(F)F)cc1NC(=O)C#Cc1ccccc1 [compound 75] | 81% | – | – | –
29 | CS(=O)(=O)Nc1ncc(C(F)(F)F)cc1NC(=O)c1ccc(F)cc1F [compound 76] | 61% | – | – | –
30 | CCc1ccc(C(=O)Nc2cc(C(F)(F)F)cnc2NS(C)(=O)=O)cc1 [compound 81] | 94% | 49% | 58% | –
31 | Cc1ccc(C(=O)Nc2cc(C(F)(F)F)cnc2NS(C)(=O)=O)s1 [compound 83] | 64% | 53% | 51% | –
32 | CS(=O)(=O)Nc1ncc(C(F)(F)F)cc1NC(=O)c1ccsc1 [compound 84] | 56% | – | – | –
33 | CS(=O)(=O)Nc1ncc(C(F)(F)F)cc1NC(=O)c1ccco1 [compound 85] | 33% | 57% | 67% | –
34 | CS(=O)(=O)Nc1ncc(C(F)(F)F)cc1NC(=O)c1cc2c(s1)CCC2 [compound 88] | 83% | – | – | –
35 | CC(Cl)(Cl)C(=O)Nc1cc(C(F)(F)F)cnc1NS(C)(=O)=O [compound 89] | 51% | – | – | –
36 | CS(=O)(=O)Nc1ncc(C(F)(F)F)cc1NC(=O)C(=O)c1ccccc1 [compound 90] | 79% | – | – | –
37 | O=C(Nc1cc(C(F)(F)F)cnc1NS(=O)(=O)C(F)(F)F)c1cccs1 [compound 92] | 75% | – | – | –
38 | CCCCS(=O)(=O)Nc1ncc(C(F)(F)F)cc1NC(=O)C1CC1 [compound 107] | – | 63% | 61% | –
39 | O=C(Nc1ncc(C(F)(F)F)cc1NC(=O)C1CCCCC1)c1ccccc1 [compound 150] | – | – | – | Inhibition rate (%) [1]: 23%
40 | CS(=O)(=O)Nc1ncc(C(F)(F)F)cc1NC(=O)C(F)(F)C(F)(F)F [compound 260] | – | – | – | % inhibition of PLA2 (1,000 ppm) [3]: 53%
